Measurements: BindingDB's records for doi:10.1021/jm00040a008 (Harvard Medical School, 1994)

Assay: Tested in vitro for inhibitory concentration against CCRF-CEM human Leukemic lymphoblast by using DHFR as primary target

IC50: 2.6 nM
Structure (SMILES): CCC(Cc1cnc2nc(N)nc(N)c2n1)c1ccc(C(=O)N[C@@H](CCC(=O)O)C(=O)O)cc1 (stereo partly specified) [Edatrexate]
